The results in this text go back to patent US10494402B2, “Peptides that stimulate subcutaneous adipogenesis” (The Regents of the University of California, priority 2012, dated 2019).

Test [1] has as its system rat mesenchymal stem cells. The experiment in a line: Adipogenesis Assay 2 (dexamethasone/insulin/indomethacin induction, then peptide; Oil Red O or BODIPY). It counts as cell-based. To be noted: Assay 2. The procedure: Reagents: The dexamethasone, insulin, and Oil Red O solutions were the same as described above for assay 1. Indomethacin Solution contained 10 mM indomethacin in methanol. The BODIPY 493/503 dye was used at a concentration of 4 μM.
Adipogenesis Maintenance Media was prepared as described above.
Adipogenesis Induction Media: To prepare 501 mL of Adipogenesis Induction Media, 50 μL of the 10 mM stock solution of dexamethasone, 500 μL of the 10 mg/ml stock solution of insulin, 5 ml of a 10 mM stock solution of indomethacin, and 5 mL of a 100× stock solution of penicillin and streptomycin were added to 490 mL of mesenchymal stem cell expansion media.
Pre-adipocyte stem cells, bone marrow mesenchymal stem cells and fibroblasts such as dermal reticular and papillary fibroblasts were propagated using standard tissue culture methods. Cells were trypsinized to remove cells from the substratum, the trypsin was neutralized, and cells were counted using a hemocytometer. Cells were resuspended at 60,000 cells/ml in low glucose DMEM containing 10% calf serum. 1 mL of cell suspension per well was plated in a 24-well plate, with several wells left empty for blank well staining.
Cells were incubated overnight and had reached confluency at this point. Approximately 1.8 ml of media was removed from each well and replaced with 2 ml Adipogenesis Induction Media. For negative control wells, expansion medium only was used at this step and for subsequent media changes. For all media changes, media was replaced as gently as possible to avoid disturbing the monolayer.
Media was removed and replaced with 2 ml of maintenance medium containing either RHAMM antagonist peptides (experimental group) or insulin (concentration as in the induction medium used as positive control). […]
Media was removed and BODIPY or Oil Red O staining was performed as described above for assay 1.
As described above in Example 1, two different adipogenesis assays were used herein to assess the adipogenic effects of the peptides in rat mesenchymal stem cells. Assay 1 is an assay that is typically used to promote transdifferentiation of fibroblasts into adipocytes, whereas Assay 2 is typically used to promote differentiation of multi-potential mesenchymal progenitor cells into adipocytes. Immortalized rat bone marrow mesenchymal stem cells were used for both assays. These cells contain cells of different lineages, including fibroblasts, pre-adipocytes, pre-chondrocytes and pre-osteoblasts. Thus, Assay 1 was used to promote transdifferentiation of the fibroblast lineages into adipocytes and Assay 2 was used to promote differentiation of the pre-adipocytes into adipocytes.
As described in Example 1 above, the priming stimulus for Assay 1 includes IBMX (3-isobutyl-1-methylxanthine) and dexamethasone, and then insulin as the final adipogenic stimulus. The priming stimulus for assay 2 includes IBMX, dexamethasone and indomethacin, and then insulin as the final adipogenic stimulus.

Test [2] relates to 2D rat Pre-adipocytes (rat mesenchymal stem cells). In words: Adipogenic potential ranking in 2D tissue culture, rat pre-adipocytes. Type of test: cell-based. The conditions noted are these: ranked on a scale of 0-5 with 5 representing the highest possible score. The procedure:
(§1) Examples of the adipogenic effects of RHAMM antagonists (peptide B (SEQ ID NO: 2), peptide P15-1 (SEQ ID NO. 1), and the antibody to peptide B) are summarized in Table 1. Peptide P15-1, peptide B, and a RHAMM antibody were assayed for their effects on pre-adipocyte stem cells in culture and when injected into the dermis of aged rats. Reagents were ranked on a scale of 0-5 with 5 representing the highest possible score and a completely filled in Harvey ball. “2D” refers to two-dimensional tissue culture.

Another test relates to Rat skin. The experiment in a line: Rat dermal skin model of adipogenesis (injection into dermis). Type of test: in vivo. The procedure: as §1
In FIGS. 5A and 5B, data are shown as a ratio of the area (“surface area”) of fat pads expressed as a ratio of experimental/control values.
The 6-mer (KSEVSK; SEQ ID NO: 3) was tested for adipogenic effect in rat skin in vivo. The results of this testing are shown in the photographs in FIG. 10.

The subject of a further test is nude guinea pigs. The experiment in a line: Subcutaneous fat deposition in nude guinea pigs. Type of test: in vivo, guinea pig. To be noted: injection on upper back and in ear fat pad; control collagen gel vehicle only. The procedure:
Peptide B (SEQ ID NO: 2) was also tested for its effect in nude guinea pigs since their skin structure resembles human facial skin. In particular, the skin of this animal model is more similar to human skin than is rat skin, in that it is hairless and the keratinocyte layer is thicker than in the rat model. […] Thus, peptide B was effective in promoting adipogenesis in this nude guinea pig model.

For test [3], the system named is human adipose-derived stem cells (h-ADSCs). The experiment in a line: Differentiation of human adipose-derived stem cells (h-ADSCs). Type of test: cell-based. The conditions noted are these: for adipogenesis, absorbance of extracted Oil Red O: 5 μg/ml in adipogenic cocktail in the absence of insulin and PPARγ agonist, two weeks; for adipogenesis (micrographs) in the absence of PPARγ agonist / adipogenesis (micrographs) in the presence of PPARγ agonist: B peptide 5 μg/ml, 6-mer 5 μg/ml or 20 μg/ml. An excerpt:
The Adipocyte Differentiation Medium contained DMEM/Ham's F-12 (1:1 v/v), HEPES pH 7.4, fetal bovine serum, biotin, penicillin, streptomcyin, amphotericin B, pantothenate, human insulin, dexamethasone, isobutylmethylxanthine (IBMX) and a PPARγ agonist. This positive stimulus was used as the positive control. […] The upper right panel and the lower left panel of FIG. 14 provide two different fields of view of the h-ASDCs exposed to the adipogenic cocktail at 4× magnification.
Monolayers that were maintained in Preadipocyte Medium only (ZenBio catalog no. PM-1, containing DMEM/Ham's F-12 (1:1 v/v), HEPES 7.4, fetal bovine serum, penicillin, streptomcyin, and amphotericin B) or monolayers that were exposed to the adipogenic cocktail without insulin and PPARγ agonist were both used as negative controls. […] The negative controls shown in FIG. 15 were exposed to Preadipocyte Medium only. […] The adipogenic peptides (peptide B and the KSEVSK 6-mer) were mixed into adipogenic cocktail that lacked the PPARγ agonist and/or insulin and used as the experimental condition.
To quantify the adipogenic activity of the KSEVSK 6-mer (SEQ ID NO: 3) and the B peptide (SEQ ID NO: 2), h-ADSCs were exposed to 5 μg/ml of these peptides in the adipogenic cocktail in the absence of insulin and PPARγ agonist). The experiment was terminated two weeks after the addition of adipogenic mixtures. At this time, photographs of monolayers were taken and the lipid droplet accumulation was quantified by measuring the absorbance of extracted Oil Red 0. […] The peptides stimulated adipogenesis to a similar extent when the PPARγ agonist alone or both the PPARγ agonist and insulin were deleted from the adipogenic cocktail (not shown).
In further studies using h-ADSCs, two different protocols were used. In the first of these protocols, h-ADSCs were exposed to the adipogenic cocktail plus the KSEVSK 6-mer (SEQ ID NO: 3) or B peptide (SEQ ID NO: 2) at concentrations of 5 μg/ml or 20 μg/ml. […] In the second of these protocols, h-ADSCs were exposed to adipogenic cocktail in which the PPARγ agonist was replaced with either the KSEVSK 6-mer or the B peptide at concentrations of 5 μg/ml or 20 μg/ml. […] Statistical analysis were performed compared to negative control. Data presented as mean±standard error (n=3).

For the substance KLKDENSQLKSEVSK [peptide B], in test [1], the “Fold adipogenic induction vs. negative control” value is given as 4.0 and the “Specific activity (activity/1000 daltons)” value amounted to 2.17 activity/1000 daltons. Besides, in test [2], the “adipogenic potential, 2D rat Pre-adipocytes (rat mesenchymal stem cells)” value is given as 5. The “fat accumulation (fat pads)” value with Rat skin (25-50 μg/injection site) is on record as “induced significant fat accumulation”. Also, in the test with Rat skin (FIGS. 5A and 5B), the “animals in which reagent was most effective (fat pad surface area, experimental/control)” value is recorded as “most effective in old females”. Also, the “adipogenic potential, In vivo Rat skin” value with Rat skin (injected into the dermis of aged rats, scale of 0-5, 5 highest) came out at 5. Further, the “subcutaneous fat deposition (H and E staining)” value with nude guinea pigs is recorded as “increase in subcutaneous fat deposition”. In test [3], the “adipogenesis, absorbance of extracted Oil Red O” value is “strongly promoted adipogenesis compared to the negative control (p<0.05)”; the “adipogenesis (micrographs) in the absence of PPARγ agonist” value was “underwent adipogenesis”; the “adipogenesis (micrographs) in the presence of PPARγ agonist” value was “underwent adipogenesis”.

As to KSEVSK [KSEVSK 6-mer], in test [1], the “Fold adipogenic induction vs. negative control” value turned out to be 2.5 and the “Specific activity (activity/1000 daltons)” value amounted to 3.32 activity/1000 daltons. In the test with Rat skin (FIG. 10), the “fat pad induction in rat skin in vivo” value is given as “able to induce large fat pads, possibly larger than peptide B”. In addition, in test [3], the “adipogenesis, absorbance of extracted Oil Red O” value is reported as “strongly promoted adipogenesis compared to the negative control (p<0.05)”; the “adipogenesis (micrographs) in the absence of PPARγ agonist” value was “underwent adipogenesis”; the “adipogenesis (micrographs) in the presence of PPARγ agonist” value is reported as “underwent adipogenesis”. The “adipogenesis (lipid droplets) compared with positive control” value in test [3] (two weeks after initiation, peptide in cocktail lacking PPARγ agonist and/or insulin) is reported as “more effective at promoting adipogenesis than the positive control”.
